Experimental data published in PubChem BioAssay (NCI).
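Cultured in 96-well plates, cells were exposed to test compound for 48 hours across five concentrations. The concentration for 50% growth inhibition is given as GI50. TGI marks complete inhibition of growth.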 Where a SMILES comes first, the peptide text is derived from it. The star is where a group is joined. Palmitoyl = CCCCCCCCCCCCCCCC(=O)*

Assays:
Assay in all cases: NCI anticancer screen, dose series, 48 h
[1] = test system: SW-620 colon
[2] = test system: UO-31 renal
[3] = test system: EKVX NSCLC
[4] = test system: SK-MEL-5 melanoma
[5] = test system: MDA-MB-435
[6] = test system: HOP-62 NSCLC
[7] = test system: OVCAR-5 ovarian
[8] = test system: TK-10 renal
[9] = test system: ACHN renal
[10] = test system: PC-3 prostate

Structure (SMILES)	GI50 [1]	TGI [1]	GI50 [2]	TGI [2]	GI50 [3]	TGI [3]	GI50 [4]	TGI [4]	GI50 [5]	TGI [5]	GI50 [6]	TGI [6]	GI50 [7]	TGI [7]	TGI [8]	TGI [9]	TGI [10]
CCCCCCCCCCCCCCCC(=O)N1CCCC1C(=O)NCC(=O)NC(Cc1ccccc1)C(=O)N1CCCC1C(=O)NC(CO)C(=O)NC(Cc1ccc(O)cc1)C(=O)NC(CCCCN)C(=O)NC(CC(C)C)C(=O)NC(CCCN=C(N)N)C(=O)N1CCCC1C(=O)NCC(N)=O (stereo not drawn) (Palmitoyl-PGFPSYKLRPG-NH2; configuration not given here)	25.5 µM	73.9 µM	20.5 µM	56.8 µM	15.7 µM	44.5 µM	28.7 µM	> 100 µM	23.6 µM	> 100 µM	22.9 µM	48 µM	17.1 µM	37.8 µM			
Cc1cc(C)nc(NC(=S)Nc2ccc([N+](=O)[O-])cc2)c1		> 100 µM		> 100 µM		> 100 µM		> 100 µM		> 100 µM		> 100 µM			> 100 µM	> 100 µM	> 100 µM
CN1Cc2c(nc(-c3ccccc3)c[n+]2[O-])N(C)C1		> 100 µM		> 100 µM		> 100 µM		> 100 µM				> 100 µM		> 100 µM	> 100 µM	> 100 µM	
O=C1NC(O)CCN1C1OC(CO)C(O)C1O (stereo not drawn)		> 250 µM		> 250 µM		> 250 µM		> 92 µM				> 250 µM		> 145 µM			
CC(C(=O)COCc1ccccc1)P1(=O)OC(C)(C)CN1C(C)(C)C (stereo not drawn)		> 100 µM		> 100 µM		> 100 µM		> 100 µM		> 100 µM		> 100 µM		> 100 µM	> 100 µM	> 100 µM	
CCOC(=O)/C(C(C)=O)=C(\OC(C)=O)c1ccncc1C(=O)O		> 100 µM		> 100 µM		> 100 µM				> 100 µM				> 100 µM		> 100 µM	> 100 µM
C=CC1(C)CC(=O)C2(O)C(C)(O1)C(OC(C)=O)C(O)C1C(C)(C)CCC(O)C12C (stereo not drawn)		> 150 µM	> 72.5 µM	> 137 µM		> 150 µM		> 102 µM			> 83.2 µM	> 150 µM		45.5 µM	> 34.6 µM		
COc1ccc(CC(N)=O)cc1OC		> 1250 µM		> 1250 µM		> 1250 µM		> 1250 µM				> 1250 µM		> 1250 µM			
Clc1ccc(C=NC23CC4CC(CC(C4)C2)C3)c(Cl)c1		> 10 µM				> 10 µM		> 10 µM		> 10 µM		> 10 µM		> 10 µM	> 10 µM	> 10 µM	> 10 µM
C[C@@H]1CC[C@H]2[C@H]1[C@H]1[C@@H](CC[C@]2(C)N=C=S)C1(C)C		36 µM		> 100 µM				31.8 µM		96.6 µM		> 100 µM		> 100 µM	> 100 µM		> 100 µM
O=C1/C(=C/c2ccc(Cl)cc2)CCCc2ccccc21		29 µM		35.4 µM		35.3 µM				36.1 µM		57.7 µM		31.9 µM	58.7 µM	31.1 µM	53.1 µM
COc1cc(C2c3cc4c(cc3[C@@H](Nc3ccccc3)C3COC(=O)[C@H]23)OCO4)cc(OC)c1O (stereo partly drawn)		> 42.9 µM		5.07 µM		8.47 µM		2.66 µM				0.671 µM		> 66.8 µM			
N#CC(c1ccccc1)N(CCOCCOCCN(C(=O)c1ccccc1)C(C#N)c1ccccc1)C(=O)c1ccccc1 (stereo not drawn)		> 100 µM		> 100 µM		> 100 µM		> 100 µM		> 100 µM				> 100 µM	> 100 µM	> 100 µM	> 100 µM
CN1CCN(Cc2cc3c(nn2)-c2ccccc2C3=O)CC1		> 100 µM		> 100 µM		> 100 µM		35.1 µM		50.2 µM				> 100 µM	> 100 µM	62.4 µM	> 100 µM
CC(C)C1=CC23CCC4C(C)(C(=O)O)CCCC4(C)C2CC1C1C(=O)N(CCCCCCN2C(=O)C4C5CC6C7(C)CCCC(C)(C(=O)O)C7CCC6(C=C5C(C)C)C4C2=O)C(=O)C13 (stereo not drawn)		33.4 µM				21.6 µM		26.9 µM		17.8 µM				37.4 µM	31 µM	22.8 µM	19 µM
CC(C)(C)c1ccc2c(c1)C#Cc1cc3c(cc1OCCCO2)C#Cc1cc(C(C)(C)C)ccc1OCCCO3		> 100 µM				> 100 µM		> 100 µM		> 100 µM		> 100 µM		> 100 µM	> 100 µM	> 100 µM	> 100 µM
CCOC(=O)/C=C1/C(CCCOCc2ccccc2)C2CCCC23CC2(CCN13)OCCO2 (stereo not drawn)		> 100 µM		64.5 µM		> 100 µM		34.8 µM						> 100 µM	> 100 µM	83.9 µM	
O=C(NN1C(=O)CS(=O)(=O)C1c1ccc(C(F)(F)F)cc1)c1ccncc1 (stereo not drawn)		> 100 µM						> 100 µM				> 100 µM		> 100 µM	> 100 µM	> 100 µM	
